Assay results taken from patent US20240174717A1, “AFFINITY AGENTS” (Avitide LLC, priority 2021, published 2024).
Bridges are numbered along the chain shown (N, C = ends). [ ]: non-standard residue; d: D form. (Peg)3 = 12-amino-4,7,10-trioxadodecanoic acid subunits; PEG3 = NCCOCCOCCOCCC(=O)O; code 4 = not defined here; Dap = NC[C@H](N)C(=O)O

Columns and labels:
exosomes = test: Filter plate static binding experiment: affinity capture of exosomes by resins; conditions: ligand conjugated to A50 beads, load 1E10 particles/mL in PBST, 60 min
Method: A filter plate binding experiment using Durapore Membrane.
Resins were prepared by conjugating ligands to A50 beads.

[1] = Stability of affinity resin towards sodium hydroxide (static binding before and after treatment); type: physicochemical; conditions: 0.1 M NaOH for 18 hours, then static binding experiment vs untreated resin
Method: Resin comprising SEQ ID No: 43 was incubated with 0.1 M NaOH for 18 hours, washed and a static binding experiment was conducted as described in example 5.

Ave Capture (%) (exosomes; ligand density 7.4 mg/mL) | Ave Capture (%) (exosomes; ligand density 11.2 mg/mL) | Ave Capture (%) (exosomes; ligand density 7.7 mg/mL) | Ave Capture (%) (exosomes; ligand density 9.8 mg/mL) | Substance | stability of resin towards sodium hydroxide [1]
89% | 98% |  |  | Ac-NYWR5VWFPHAQG2VSTA-(Peg)3K-Amide (Ac-NYWRDVWFPHAQG[Dap]VSTA[(Peg)3]K-NH2; lactam 5-14) [SEQ ID No. 43] | stable towards 0.1 M NaOH
 |  | 38% | 97% | Ac-NYWR5VWFPHAQG4VSTA-(Peg)3K-Amide (Ac-NYWRDVWFPHAQG[code 4]VSTA[PEG3]K-NH2; lactam 5-14; not fully specified (some residues); printed as Ac-NYWR5VWFPHAQG4VSTA-(Peg)3K-Amide; reading uncertain) [SEQ ID No. 28] | 
